Test results: patent US20240116999A1, “CONFORMATIONALLY CONSTRAINED GLUCAGON ANALOGUES AND THEIR USE IN GLUCAGON-SINGLE CHAIN INSULIN FUSION PROTEINS” (THE TRUSTEES OF INDIANA UNIVERSITY, priority 2021, published 2024)
Values belong to the compound of their own block, whether it stands above or below them. Bridge positions count the residues as written; N and C are the ends. Square brackets hold non-standard residues; d marks the D form. Ends that are not written are not given here. Peptide text beside a SMILES is read from it. Orn = NCCC[C@H](N)C(=O)O

Assays:
normal rats [1] = assay: Stability assay: samples incubated at 37° C., then activity tested; format: in vivo, rat; details: FIG. 11; 150 μg/ml in 50 mM Tris buffer pH 8.0, 37° C., mild agitation and rotation; tested t=0, day 3, day 7
Protocol: Glucagon Activity Assays. The glycemic activities of glucagon analogues were tested (Ismail-Beigi ,Case Western Reserve University) in normal male rats (250-350 g) that were fasted for 4 h before the injection and not fed during the course of the experiment (4-5 rats per dose of glucagon in parallel). Glucagon or analogues were prepared (150 μg/ml in sterile 50 mM Tris-HCl buffer (pH 8.0)) and administered by subcutaneous injections (40.1 nmol/kg (˜50 ug/333 g rat)) in an injection volume of 200 μl/333 g rat. Rats were grouped according to their 2nd measured starting blood-glucose concentrations to ensure similar starting values at time=0. For in vivo dose-response studies a series of doses (40.1, 8.0, 1.6, 0.32, 0.064, and 0.013 nmol/kg) was tested in groups of 4-5 rats at each dose. Diluent volume was 200 μl/333 g rat. Experiments were repeated at least twice, and the results were averaged. The rise in blood glucose values were corrected by any changes observed in diluent-injected rats.
To test for stability of glucagon and its analogues, samples (150 μg/ml in 50 mM Tris-HCl buffer (pH 8.0)) were incubated at 37° C. with mild agitation and rotation. Samples were tested as described above after varying periods of incubation.

normal rats [2] = assay: In vivo glucagon activity assay in normal rats; set-up: species or system rat; details: for in vivo glucagon activity (rise in blood glucose): subcutaneous injection
Protocol: Glucagon Activity Assays. […] Glucagon or analogues were prepared (150 μg/ml in sterile 50 mM Tris-HCl buffer (pH 8.0)) and administered by subcutaneous injections (40.1 nmol/kg (˜50 ug/333 g rat)) in an injection volume of 200 μl/333 g rat. Rats were grouped according to their 2nd measured starting blood-glucose concentrations to ensure similar starting values at time=0. For in vivo dose-response studies a series of doses (40.1, 8.0, 1.6, 0.32, 0.064, and 0.013 nmol/kg) was tested in groups of 4-5 rats at each dose. Diluent volume was 200 μl/333 g rat. Experiments were repeated at least twice, and the results were averaged. The rise in blood glucose values were corrected by any changes observed in diluent-injected rats.

glucagon receptor = glucagon receptor (Homo sapiens, UniProt P47871); assay: Cell-based cyclic AMP (cAMP) activity assay; details: for EC50: FIG. 8B, HEK-293 cells overexpressing glucagon receptor, read-out: EC50 (cAMP production)
glucagon receptor, sequence (P47871 26-477, species assumed): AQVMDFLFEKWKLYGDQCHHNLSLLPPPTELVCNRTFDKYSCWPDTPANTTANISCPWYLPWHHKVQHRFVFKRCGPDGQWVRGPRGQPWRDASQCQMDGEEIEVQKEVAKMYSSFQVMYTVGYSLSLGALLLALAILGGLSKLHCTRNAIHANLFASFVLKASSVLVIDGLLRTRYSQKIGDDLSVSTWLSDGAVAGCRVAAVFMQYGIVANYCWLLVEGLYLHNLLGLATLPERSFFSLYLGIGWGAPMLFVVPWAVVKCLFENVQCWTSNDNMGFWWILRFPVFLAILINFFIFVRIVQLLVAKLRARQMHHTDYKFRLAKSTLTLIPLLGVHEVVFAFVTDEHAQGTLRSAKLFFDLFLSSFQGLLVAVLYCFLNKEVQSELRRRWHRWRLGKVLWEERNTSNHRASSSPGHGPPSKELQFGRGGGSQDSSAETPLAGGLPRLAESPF
Protocol: Cell-based Activity Assays. We generated a cAMP assay on HepG2 cells transiently transfected with the glucagon receptor (GCGR). The GCGR gene with C-terminal Flag tag was synthesized and ligated to a pcDNA 3.1 vector by Genscript. A plate of HepG2 cells was grown to 70% confluence and then transfected with 15 μg plasmid. […] Then, cAMP was measured following the instructions of the LANCETM Ultra cAMP Kit (PerkingElmer) using 3 technical replicates per point. This is a TR-FRET assay based on the competition between a europium-labeled cAMP and sample cAMP for binding to cAMP-specific labeled antibodies. In the LANCE cAMP assay, a higher sample cAMP (higher glucagon activity) translates to lower signal.

STZ (diabetic) rats = assay: In vivo assay in STZ (diabetic) rats, subcutaneous injection; set-up: species or system rat
From the text: FIG. 17 presents an in vivo assay done in STZ rats.
FIG. 18 presents another in vivo assay done in STZ rats. The four fusion proteins used in FIG. 17 were subcutaneously injected at doses of 23.8 nmol/kg per rat. […] In this study both fusion proteins carrying an active SCI analogue had similar activities.

[3] = Thioflavin T (ThT) fibrillation assay; format: physicochemical; details: for formation of amyloid-like fibrils: FIG. 15, month-long assay, 100 μM, pH 7.4, 37° C.; for fibril formation: FIG. 5, relative to native glucagon
Protocol: Fibrillation Assays. We employed an automated plate-based fluorescent device to monitor the time course of peptide fibrillation using a Thioflavin T (ThT) assay. This assay is based on the THT fluorescence emission at 480 nm upon binding to mature fibrils when excited at 440 nm. The assay was performed by preparing stock solutions of the fusion protein and the individual peptides in either NaCl 0.9% (pH 2.5) or PBS (pH 7.4). Our experience has identified 100-μM final concentration as optimal fibrillation conditions for glucagon analogues. Stock solutions were diluted with NaCl 0.9% or 1X PBS buffer, pH adjusted (with 1N HCl or 1N NaOH) mixed with Thioflavin-T (THT) at a final concentration of 16 μM, centrifuged, and 250 μl of the sample were placed on a 96-well plate with 4-10 technical replicates. Measurements were done every 15 minutes and the sample agitated at 1096 cpm at 37° C. on a Synergy H1 microplate reader (BioTek, Winooski, VT). The lag time, defined as the time-point at which fibrillation starts its exponential phase, was considered as the point at which fluorescence was 3 times the background signal.

[4] = pH 2.5, 37° C., constant agitation

- biological activity after incubation (stability) (normal rats [1]): maintained full biological activity
Compound: CC(C)C[C@H](NC(=O)[C@H](Cc1c[nH]c2ccccc12)NC(=O)[C@H](CCCCN)NC(=O)[C@@H](NC(=O)[C@H](Cc1ccccc1)NC(=O)[C@H](CCC(=O)O)NC(=O)[C@H](CCC(=O)O)NC(=O)[C@H](C)NC(=O)[C@H](CCCNC(=N)N)NC(=O)[C@H](C)NC(=O)C(C)(C)NC(=O)[C@H](CC(=O)O)NC(=O)[C@H](CC(C)C)NC(=O)[C@H](Cc1ccc(O)cc1)NC(=O)[C@H](CCCCN)NC(=O)[C@H](CO)NC(=O)[C@H](Cc1ccc(O)cc1)NC(=O)[C@H](CC(=O)O)NC(=O)[C@H](CO)NC(=O)[C@@H](NC(=O)[C@H](Cc1ccccc1)NC(=O)[C@@H](NC(=O)CNC(=O)[C@H](CCC(N)=O)NC(=O)[C@H](CO)NC(=O)[C@@H](N)Cc1c[nH]cn1)[C@@H](C)O)[C@@H](C)O)C(C)C)C(=O)N[C@@H](CCC(=O)O)C(=O)N[C@@H](CO)C(=O)N[C@H](C(=O)O)[C@@H](C)O [dasiglucagon, reference compound]

- potency (cAMP assay) (glucagon receptor; FIG. 8, relative to the lactam analogue): markedly diminished potency
Compound: HSQGTFTSDYSOKLDSEOAQDFVQWLMNTEEK (HSQGTFTSDYS[Orn]KLDSE[Orn]AQDFVQWLMNTEEK; lactam 13-17) [[Lys13, Glu17]-glucagon-EEK linear, includes the [Lys13-Glu17] substitutions but not the side-chain lactam bond]
- in vivo glucagon activity (rise in blood glucose) (normal rats [2]; FIGS. 9, 10, 13): inactive

Compound: HSQGTFTSDYSOYLDSOOAQDFV[D-Cys]WLCNTEEK [[D-Cys24-Cys27] L]
- in vivo glucagon activity (rise in blood glucose) (normal rats [2]; FIGS. 9, 10, 13): only analogue that is active, other than wild-type glucagon, was the [Lys13, Glu17]-glucagon lactam

Compound: HSQGTFTSDYSKKLDSERAQDFVQWLMNT (lactam 13-17) [[Lys13, Glu17]-Glucagon linear, linear [Lys13, Glu17] analogue without Orn substitutions or C-terminal EEK extension]
- in vivo glucagon activity (rise in blood glucose) (normal rats [2]; FIGS. 9, 10, 13): only analogue that is active, other than wild-type glucagon, was the [Lys13, Glu17]-glucagon lactam

Compound: HSQGTFTSKYSOELDSOOAQDFVQWLMNTEEKFVNQHLCGSHLVEALYLVCGEOGFFYTPETEEGPOOGIVEQCCQSICSLEQLENYCN [SEQ ID NO: 75]
- activity at 23.8 nmol/kg relative to the 12-nmol/kg rat doses (STZ (diabetic) rats; FIG. 18 vs FIG. 17, STZ rats): increased activity at the increased dose

- time without fibril formation ([3]; FIG. 7, phosphate-buffered saline pH 7.4, 100 μM, 37° C., constant agitation): > 11 days
- EC50 (glucagon receptor): 126 nM
- biological activity after incubation (stability) (normal rats [1]): maintained full biological activity
Compound: CSCC[C@H](NC(=O)[C@H](CC(C)C)NC(=O)[C@H](Cc1c[nH]c2ccccc12)NC(=O)[C@H](CCC(N)=O)NC(=O)[C@@H](NC(=O)[C@H](Cc1ccccc1)NC(=O)[C@H](CC(=O)O)NC(=O)[C@H](CCC(N)=O)NC(=O)[C@H](C)NC(=O)[C@H](CCCN)NC(=O)[C@@H]1CCC(=O)NCCCC[C@H](NC(=O)[C@H](CCCN)NC(=O)[C@H](CO)NC(=O)[C@H](Cc2ccc(O)cc2)NC(=O)[C@H](CC(=O)O)NC(=O)[C@H](CO)NC(=O)[C@@H](NC(=O)[C@H](Cc2ccccc2)NC(=O)[C@@H](NC(=O)CNC(=O)[C@H](CCC(N)=O)NC(=O)[C@H](CO)NC(=O)[C@@H](N)Cc2c[nH]cn2)[C@@H](C)O)[C@@H](C)O)C(=O)N[C@@H](CC(C)C)C(=O)N[C@@H](CC(=O)O)C(=O)N[C@@H](CO)C(=O)N1)C(C)C)C(=O)N[C@@H](CC(N)=O)C(=O)N[C@H](C(=O)N[C@@H](CCC(=O)O)C(=O)N[C@@H](CCC(=O)O)C(=O)N[C@@H](CCCCN)C(=O)O)[C@@H](C)O [SEQ ID NO: 23, HSQGTFTSDYSOKLDSEOAQDFVQWLMNTEEK] (H-HSQGTFTSDYS[Orn]KLDSE[Orn]AQDFVQWLMNTEEK-OH; lactam 13-17; N-terminus and C-terminus assumed)
- rise in blood glucose levels (normal rats [2]; FIG. 12, 8 nmol/kg rat dose): minor raise
- rise in blood glucose levels, dose-response (normal rats [2]; FIG. 12, doses 0.32, 1.6, 8 and 40 nmol/kg rat): only at the maximum dose
- in vivo glucagon activity (rise in blood glucose) (normal rats [2]; FIGS. 9, 10, 13): maximal activity
- in vivo glucagon activity (rise in blood glucose) (normal rats [2]; FIGS. 9, 10, 13, listed as [Lys13, Glu17]-glucagon-EEK lactam): active
- formation of amyloid-like fibrils [3]: did not form amyloid-like fibrils within the duration of the experiment

Compound: HSQGTFTSDYSKYLDSRRAQDFVQWLMNTO [SEQ ID NO: 5]
- fibril formation [3, 4]: delay fibril formation
- fibril formation ([3]; pH 7.4, 37° C., constant agitation): delay fibril formation

Compound: HSQGTFTSDYSKKLDSERAQDFVQWLMNT (lactam 13-17) [SEQ ID NO: 10, a lactam bridge connects the side chains of variant residues K13 and E17]
- in vivo glucagon activity (rise in blood glucose) (normal rats [2]; FIGS. 9, 10, 13, listed as [Lys13, Glu17]-glucagon lactam): active

- formation of amyloid-like fibrils [3]: formed amyloid-like fibrils
- EC50 (glucagon receptor): 93.5 nM
Compound: CSCC[C@H](NC(=O)[C@H](CC(C)C)NC(=O)[C@H](Cc1c[nH]c2ccccc12)NC(=O)[C@H](CCC(N)=O)NC(=O)[C@@H](NC(=O)[C@H](Cc1ccccc1)NC(=O)[C@H](CC(=O)O)NC(=O)[C@H](CCC(N)=O)NC(=O)[C@H](C)NC(=O)[C@H](CCCN)NC(=O)[C@H](CCCN)NC(=O)[C@H](CO)NC(=O)[C@H](CC(=O)O)NC(=O)[C@H](CC(C)C)NC(=O)[C@H](Cc1ccc(O)cc1)NC(=O)[C@H](CCCN)NC(=O)[C@H](CO)NC(=O)[C@H](Cc1ccc(O)cc1)NC(=O)[C@H](CC(=O)O)NC(=O)[C@H](CO)NC(=O)[C@@H](NC(=O)[C@H](Cc1ccccc1)NC(=O)[C@@H](NC(=O)CNC(=O)[C@H](CCC(N)=O)NC(=O)[C@H](CO)NC(=O)[C@@H](N)Cc1c[nH]cn1)[C@@H](C)O)[C@@H](C)O)C(C)C)C(=O)N[C@@H](CC(N)=O)C(=O)N[C@H](C(=O)N[C@@H](CCC(=O)O)C(=O)N[C@@H](CCC(=O)O)C(=O)N[C@@H](CCCCN)C(=O)O)[C@@H](C)O [SEQ ID NO: 21, HSQGTFTSDYSOYLDSOOAQDFVQWLMNTEEK] (H-HSQGTFTSDYS[Orn]YLDS[Orn][Orn]AQDFVQWLMNTEEK-OH; N-terminus and C-terminus assumed)

Compound: insulin Lispro [reference compound]
- formation of amyloid-like fibrils [3]: formed amyloid-like fibrils

Compound: HSQGTFTSDYSKYLDSRRAQDFVQWLMNTK [SEQ ID NO: 3]
- fibril formation [3, 4]: delay fibril formation

Compound: HSQGTFTSDYSKYLDSRRAQDFVQWLMNTR (glucagon peptide analog) [SEQ ID NO: 2]
- fibril formation [3, 4]: delay fibril formation

Compound: FVNQHLCGSHLVEALYLVCGEOGFFYTPETEEGPOOGIVEQCCQSICSLEQLENYCN (FVNQHLCGSHLVEALYLVCGEXGFFYTPETEEGPXXGIVEQCCQSICSLEQLENYCN; ornithine residues; insulin peptide analog; (22)..(22) Xaa at position 22 is Orn.; (35)..(35) Xaa at position 35 is Orn.; (36)..(36) Xaa at position 36 is Orn.) [SEQ ID NO: 71, 57-residue single-chain insulin (SCI) analogue lacking internal tryptic sites]
- formation of amyloid-like fibrils [3]: did not form amyloid-like fibrils within the duration of the experiment
- biological activity relative to insulin Lispro (KP-insulin) (STZ (diabetic) rats; FIG. 14, STZ (diabetic) rats, 30-μg dose of SCI vs 15-μg dose of KP-insulin): slightly higher activity than a 15-μg dose of KP-insulin

Compound: human insulin [reference compound]
- formation of amyloid-like fibrils [3]: formed amyloid-like fibrils

Compound: HSQGTFTSKYSOELDSOOAQDFVQWLMNTEEK (HSQGTFTSKYS[Orn]ELDS[Orn][Orn]AQDFVQWLMNTEEK; lactam 9-13) [SEQ ID NO: 24]
- in vivo glucagon activity (rise in blood glucose) (normal rats [2]; FIGS. 9, 10, 13): inactive
